The results in this text go back to patent publication US20240285670A1, “THERAPEUTIC TREATMENT OF TUMORS BY BLOCKING THE HEME SYNTHESIS-EXPORT AXIS” (Università degli Studi di Torino, priority 2021, published 2024).

What all share (assay type): cell-based, human
The subject of one data set is SHSY5Y cells. The experiment in a line: Flow cytometric analysis of apoptosis in SHSY5Y cells. The settings on record: 5 mM ALA for 72 hours. For orientation: Flow cytometry measures light scatter and fluorescence of single cells or particles in a stream.
The test system of data set [1] is BTECs. The experiment in a line: TCA cycle flux in BTECs. The conditions noted are these: FLVCR1a-silenced vs scramble shRNA BTECs. The text has this:
(§1) Results were expressed as nmol NAD*/min/mg mitochondrial protein for complex I, nmol reduced cytochrome c/min/mg mitochondrial protein for complexes II-III, nmol oxidized cytochrome c/min/mg mitochondrial protein for complex IV. Data represent mean±SEM, n=3. For statistical analyses, an unpaired Student's t-test was used; *=p<0.05, **=p<0.01, *=p<0.001. […] Results are expressed as nmol/mg mitochondrial proteins. Data represent mean±SEM, n=3. For statistical analyses, an unpaired Student's t-test was used; *=p<0.05. […] Results are expressed as pmol CO2/h/mg protein. Data represent mean±SEM, n=3. For statistical analyses, an unpaired Student's t-test was used; **=p<0.01. […] Results were expressed as nmol NAD*/min/mg mitochondrial protein for complex I, nmol reduced cytochrome c/min/mg mitochondrial protein for complexes II-III, nmol oxidized cytochrome c/min/mg mitochondrial protein for complex IV. […] Results are expressed as nmol/mg mitochondrial proteins. […] Results are expressed as pmol CO2/h/mg protein. […] (H) TCA cycle enzymes activities are reported in boxes and expressed as mU/mg mitochondrial proteins. […] Results were expressed as nmol NAD^+/min/mg mitochondrial protein for complex I, nmol reduced cytochrome c/min/mg mitochondrial protein for complexes II-III, nmol oxidized cytochrome c/min/mg mitochondrial protein for complex IV. […] Results are expressed as nmol/mg mitochondrial proteins. […]

The subject of data set [2] is BTECs. The experiment in a line: BTECs counting (cell proliferation). The settings on record: FLVCR1a-silenced vs scramble shRNA BTECs, 24, 48 and 72 hours. The text has this:
(A) BTECs counting, as a readout of cell proliferation, at the indicated time points. […] Data represent mean±SEM, n=4. For statistical analyses, a two-way analysis of variance was used, followed by the Bonferroni correction for multiple group comparisons; ***p<0.001. (B) Quantification of BTECs migration rate in wound-healing assay. […] Data represent mean±SEM, n=32. For statistical analyses, a nonparametric unpaired Mann-Whitney test was used; ***p<0.001. (C) In vitro tubulogenesis assay on matrigel. […] The number of nodes counted within the neo-formed vascular networks is shown. Data represent mean±SEM; n=10. For statistical analyses, a nonparametric unpaired Mann-Whitney test was used; **p<0.01.
For cell counting, 1*10^4 BTECs were seeded in 12-well plates and counted at 24, 48 and 72 hours after plating, as a readout of cell proliferation. Three independent experiments were performed.

A further data set relates to SH-SY5Y cells. The experiment in a line: Mitochondrial ATP levels in SHSY-5Y cells. The settings on record: FLVCR1a-silenced vs scramble shRNA SH-SY5Y cells.
Source text: as §1

As for `Cl.NCC(=O)CCC(=O)O` [5-ALA, 5-Aminolevulinic acid hydrochloride], the apoptosis entry with SHSY5Y cells is “increased apoptosis”.
Regarding “FLVCR1a shRNA: shRNA specifically down-regulating FLVCR1a without targeting FLVCR1b; pLKO.1 lentiviral clone TRCN0000059599, antisense SEQ ID No.: 2 (antisense TTGCTAATGATGCTGTACTGG; sense CCAGTACAGCATCATTAGCAA)”, in the data set on BTECs [1], the TCA cycle flux entry was “increased TCA cycle flux”. In addition, in the data set with BTECs [2], the “cell proliferation (cell counting)” value is “reduced proliferation”. Moreover, the “mitochondrial ATP levels” value with SH-SY5Y cells is reported as “increased mitochondrial ATP levels”.
